{"source": "patent US20240228504A1", "about": "“SUBSTITUTED TRICYCLIC AMIDES, ANALOGUES THEREOF, AND METHODS USING SAME” (Arbutus Biopharma Corporation, priority 2020, published 2024)", "system": "HBV rcDNA in HepDE19 cells", "test": "HepDE19 assay with bDNA quantitation of HBV rcDNA", "assay_type": "cell-based, hepatitis B virus", "details": "Hepatitis B virus, HepDE19, HepDE19 assay, inhibition of rcDNA formation, bDNA quantitation; read-out: DE-19bDNA EC50", "data": [{"compound": "CN(C(=O)c1ccc(-c2cc(F)cc(F)c2)cc1)[C@@H]1COCc2[nH]c(=O)c3cc(F)c(F)cc3c21", "note": "[Compound 286, (S)-N-(8,9-Difluoro-6-oxo-1,4,5,6-tetrahydro-2H-pyrano[3,4-c]isoquinolin-1-yl)-3′,5′-difluoro-N-methyl-[1,1′-biphenyl]-4-carboxamide]", "values": [{"measurement": "EC50", "value": 12900, "unit": "nM"}]}, {"compound": "CN(C(=O)c1ccc(-c2cc(F)cc(F)c2)c(F)c1)[C@@H]1COCc2[nH]c(=O)c3cc(F)c(F)cc3c21", "note": "[Compound 287, (S)-N-(8,9-Difluoro-6-oxo-1,4,5,6-tetrahydro-2H-pyrano[3,4-c]isoquinolin-1-yl)-2,3′,5′-trifluoro-N-methyl-[1,1′-biphenyl]-4-carboxamide]", "values": [{"measurement": "EC50", "value": 12700, "unit": "nM"}]}, {"compound": "CN(C(=O)c1cccc(-c2ccccc2)c1)[C@@H]1COCc2[nH]c(=O)c3cc(F)c(F)cc3c21", "note": "[Compound 288, (S)-N-(8,9-Difluoro-6-oxo-1,4,5,6-tetrahydro-2H-pyrano[3,4-c]isoquinolin-1-yl)-N-methyl-[1,1′-biphenyl]-3-carboxamide]", "values": [{"measurement": "EC50", "value": 11300, "unit": "nM"}]}, {"compound": "CN(C(=O)c1cccc(-c2ccc(F)cc2)c1)[C@@H]1COCc2[nH]c(=O)c3cc(F)c(F)cc3c21", "note": "[Compound 289, (S)-N-(8,9-Difluoro-6-oxo-1,4,5,6-tetrahydro-2H-pyrano[3,4-c]isoquinolin-1-yl)-4′-fluoro-N-methyl-[1,1′-biphenyl]-3-carboxamide]", "values": [{"measurement": "EC50", "value": 6400, "unit": "nM"}]}, {"compound": "CN(C(=O)c1cccc(-c2cccc(F)c2)c1)[C@@H]1COCc2[nH]c(=O)c3cc(F)c(F)cc3c21", "note": "[Compound 290, (S)-N-(8,9-Difluoro-6-oxo-1,4,5,6-tetrahydro-2H-pyrano[3,4-c]isoquinolin-1-yl)-3′-fluoro-N-methyl-[1,1′-biphenyl]-3-carboxamide]", "values": [{"measurement": "EC50", "value": 2300, "unit": "nM"}]}, {"compound": "CN(C(=O)c1cc(F)cc(-c2cccc(F)c2)c1)[C@@H]1COCc2[nH]c(=O)c3cc(F)c(F)cc3c21", "note": "[Compound 291, (S)-N-(8,9-Difluoro-6-oxo-1,4,5,6-tetrahydro-2H-pyrano[3,4-c]isoquinolin-1-yl)-3′,5-difluoro-N-methyl-[1,1′-biphenyl]-3-carboxamide]", "values": [{"measurement": "EC50", "value": 10100, "unit": "nM"}]}, {"compound": "CN(C(=O)c1cccc(Oc2ccccc2)c1)[C@@H]1COCc2[nH]c(=O)c3cc(F)c(F)cc3c21", "note": "[Compound 292, (S)-N-(8,9-Difluoro-6-oxo-1,4,5,6-tetrahydro-2H-pyrano[3,4-c]isoquinolin-1-yl)-N-methyl-3-phenoxybenzamide]", "values": [{"measurement": "EC50", "value": 11200, "unit": "nM"}]}, {"compound": "CN(C(=O)c1cccc(Oc2ccc(F)cc2)c1)[C@@H]1COCc2[nH]c(=O)c3cc(F)c(F)cc3c21", "note": "[Compound 293, (S)-N-(8,9-Difluoro-6-oxo-1,4,5,6-tetrahydro-2H-pyrano[3,4-c]isoquinolin-1-yl)-3-(4-fluorophenoxy)-N-methylbenzamide]", "values": [{"measurement": "EC50", "value": 7600, "unit": "nM"}]}, {"compound": "CN(C(=O)c1cc2ccsc2[nH]1)[C@@H]1COCc2[nH]c(=O)c3cc(F)c(F)cc3c21", "note": "[Compound 294, (S)-N-(8,9-Difluoro-6-oxo-1,4,5,6-tetrahydro-2H-pyrano[3,4-c]isoquinolin-1-yl)-N-methyl-6H-thieno[2,3-b]pyrrole-5-carboxamide]", "values": [{"measurement": "EC50", "value": 50, "unit": "nM"}]}, {"compound": "CN(C(=O)c1ccc(S(C)(=O)=O)cc1)[C@@H]1COCc2[nH]c(=O)c3cc(F)c(F)cc3c21", "note": "[Compound 295, (S)-N-(8,9-Difluoro-6-oxo-1,4,5,6-tetrahydro-2H-pyrano[3,4-c]isoquinolin-1-yl)-N-methyl-4-(methylsulfonyl)benzamide]", "values": [{"measurement": "EC50", "value": 350, "unit": "nM"}]}, {"compound": "CNS(=O)(=O)c1cccc(C(=O)N(C)[C@@H]2COCc3[nH]c(=O)c4cc(F)c(F)cc4c32)c1", "note": "[Compound 296, (S)-N-(8,9-Difluoro-6-oxo-1,4,5,6-tetrahydro-2H-pyrano[3,4-c]isoquinolin-1-yl)-N-methyl-3-(N-methylsulfamoyl)benzamide]", "values": [{"measurement": "EC50", "value": 890, "unit": "nM"}]}, {"compound": "CN(C(=O)c1cccc(NS(C)(=O)=O)c1)[C@@H]1COCc2[nH]c(=O)c3cc(F)c(F)cc3c21", "note": "[Compound 297, (S)-N-(8,9-Difluoro-6-oxo-1,4,5,6-tetrahydro-2H-pyrano[3,4-c]isoquinolin-1-yl)-N-methyl-3-(methylsulfonamido)benzamide]", "values": [{"measurement": "EC50", "value": 21000, "unit": "nM"}]}, {"compound": "CN(C(=O)c1cccc(S(C)(=O)=O)c1)[C@@H]1COCc2[nH]c(=O)c3cc(F)c(F)cc3c21", "note": "[Compound 298, (S)-N-(8,9-Difluoro-6-oxo-1,4,5,6-tetrahydro-2H-pyrano[3,4-c]isoquinolin-1-yl)-N-methyl-3-(methylsulfonyl)benzamide]", "values": [{"measurement": "EC50", "value": 9000, "unit": "nM"}]}, {"compound": "CN(C(=O)c1ccc2cncn2c1)[C@@H]1COCc2[nH]c(=O)c3cc(F)c(F)cc3c21", "note": "[Compound 299, (S)-N-(8,9-Difluoro-6-oxo-1,4,5,6-tetrahydro-2H-pyrano[3,4-c]isoquinolin-1-yl)-N-methylimidazo[1,5-a]pyridine-6-carboxamide]", "values": [{"measurement": "EC50", "value": 360, "unit": "nM"}]}, {"compound": "CC(C)C(=O)OC1OC[C@@H](N(C)C(=O)c2cc3cc(F)c(F)cc3[nH]2)c2c1[nH]c(=O)c1cc(F)c(F)cc21", "note": "(stereo partly drawn) [Compound 300, (1S)-1-(5,6-Difluoro-N-methyl-1H-indole-2-carboxamido)-8,9-difluoro-6-oxo-1,4,5,6-tetrahydro-2H-pyrano[3,4-c]isoquinolin-4-yl isobutyrate]", "values": [{"measurement": "EC50", "value": 10, "unit": "nM"}]}, {"compound": "CN(C(=O)c1cc(F)cc(Oc2ccccc2)c1)[C@@H]1COCc2[nH]c(=O)c3cc(F)c(F)cc3c21", "note": "[Compound 303, (S)-N-(8,9-Difluoro-6-oxo-1,4,5,6-tetrahydro-2H-pyrano[3,4-c]isoquinolin-1-yl)-3-fluoro-N-methyl-5-phenoxybenzamide]", "values": [{"measurement": "EC50", "value": 6700, "unit": "nM"}]}, {"compound": "CN(C(=O)c1ccc2nccn2c1)[C@@H]1COCc2[nH]c(=O)c3cc(F)c(F)cc3c21", "note": "[Compound 306, (S)-N-(8,9-Difluoro-6-oxo-1,4,5,6-tetrahydro-2H-pyrano[3,4-c]isoquinolin-1-yl)-N-methylimidazo[1,2-a]pyridine-6-carboxamide]", "values": [{"measurement": "EC50", "value": 420, "unit": "nM"}]}, {"compound": "CN(C(=O)c1cc2ccncc2[nH]1)[C@@H]1COCc2[nH]c(=O)c3cc(F)c(F)cc3c21", "note": "[Compound 307, (S)-N-(8,9-Difluoro-6-oxo-1,4,5,6-tetrahydro-2H-pyrano[3,4-c]isoquinolin-1-yl)-N-methyl-1H-pyrrolo[2,3-c]pyridine-2-carboxamide]", "values": [{"measurement": "EC50", "value": 200, "unit": "nM"}]}, {"compound": "CN(C(=O)c1cc2cnccc2[nH]1)[C@@H]1COCc2[nH]c(=O)c3cc(F)c(F)cc3c21", "note": "[Compound 308, (S)-N-(8,9-Difluoro-6-oxo-1,4,5,6-tetrahydro-2H-pyrano[3,4-c]isoquinolin-1-yl)-N-methyl-1H-pyrrolo[3,2-c]pyridine-2-carboxamide]", "values": [{"measurement": "EC50", "value": 610, "unit": "nM"}]}, {"compound": "CN(C(=O)c1cc2cnc(Cl)cc2[nH]1)[C@@H]1COCc2[nH]c(=O)c3cc(F)c(F)cc3c21", "note": "[Compound 309, (S)-6-chloro-N-(8,9-difluoro-6-oxo-1,4,5,6-tetrahydro-2H-pyrano[3,4-c]isoquinolin-1-yl)-N-methyl-1H-pyrrolo[3,2-c]pyridine-2-carboxamide]", "values": [{"measurement": "EC50", "value": 50, "unit": "nM"}]}, {"compound": "CN(C(=O)c1cc2cc(F)ncc2[nH]1)[C@@H]1COCc2[nH]c(=O)c3cc(F)c(F)cc3c21", "note": "[Compound 310, (S)-N-(8,9-Difluoro-6-oxo-1,4,5,6-tetrahydro-2H-pyrano[3,4-c]isoquinolin-1-yl)-5-fluoro-N-methyl-1H-pyrrolo[2,3-c]pyridine-2-carboxamide]", "values": [{"measurement": "EC50", "value": 30, "unit": "nM"}]}, {"compound": "CN(C(=O)c1ccc2cc(C(F)(F)F)cn2c1)[C@@H]1COCc2[nH]c(=O)c3cc(F)c(F)cc3c21", "note": "[Compound 311, (S)-N-(8,9-Difluoro-6-oxo-1,4,5,6-tetrahydro-2H-pyrano[3,4-c]isoquinolin-1-yl)-N-methyl-2-(trifluoromethyl)indolizine-6-carboxamide]", "values": [{"measurement": "EC50", "value": 140, "unit": "nM"}]}, {"compound": "CN(C(=O)c1cc2c(Br)cncc2[nH]1)[C@@H]1COCc2[nH]c(=O)c3cc(F)c(F)cc3c21", "note": "[Compound 312, (S)-4-Bromo-N-(8,9-difluoro-6-oxo-1,4,5,6-tetrahydro-2H-pyrano[3,4-c]isoquinolin-1-yl)-N-methyl-1H-pyrrolo[2,3-c]pyridine-2-carboxamide]", "values": [{"measurement": "EC50", "value": 30, "unit": "nM"}]}, {"compound": "CN(C(=O)c1ccnc(C(F)F)c1)[C@@H]1COCc2[nH]c(=O)c3cc(F)c(F)cc3c21", "note": "[Compound 313, (S)-N-(8,9-Difluoro-6-oxo-1,4,5,6-tetrahydro-2H-pyrano[3,4-c]isoquinolin-1-yl)-2-(difluoromethyl)-N-methylisonicotinamide]", "values": [{"measurement": "EC50", "value": 170, "unit": "nM"}]}, {"compound": "CN(C(=O)c1cc2occc2[nH]1)[C@@H]1COCc2[nH]c(=O)c3cc(F)c(F)cc3c21", "note": "[Compound 314, (S)-N-(8,9-Difluoro-6-oxo-1,4,5,6-tetrahydro-2H-pyrano[3,4-c]isoquinolin-1-yl)-N-methyl-4H-furo[3,2-b]pyrrole-5-carboxamide]", "values": [{"measurement": "EC50", "value": 150, "unit": "nM"}]}, {"compound": "CN(C(=O)c1cc2cc(F)c(F)cc2[nH]1)[C@@H]1COCc2c1c1cc(F)c(F)cc1c(=O)n2CCO", "note": "[Compound 315, (S)-N-(8,9-Difluoro-5-(2-hydroxyethyl)-6-oxo-1,4,5,6-tetrahydro-2H-pyrano[3,4-c]isoquinolin-1-yl)-5,6-difluoro-N-methyl-1H-indole-2-carboxamide]", "values": [{"measurement": "EC50", "value": 30, "unit": "nM"}]}, {"compound": "CN(C(=O)c1cc2cc(F)c(F)cc2[nH]1)[C@@H]1COCc2c1c1cc(F)c(F)cc1c(=O)n2CCN", "note": "[Compound 316]", "values": [{"measurement": "EC50", "value": 390, "unit": "nM"}]}, {"compound": "CN(C(=O)c1cc2cc(F)c(F)cc2[nH]1)[C@@H]1COCc2nc(OCCO)c3cc(F)c(F)cc3c21", "note": "[Compound 317, (S)-N-(8,9-Difluoro-6-(2-hydroxyethoxy)-1,4-dihydro-2H-pyrano[3,4-c]isoquinolin-1-yl)-5,6-difluoro-N-methyl-1H-indole-2-carboxamide]", "values": [{"measurement": "EC50", "value": 10, "unit": "nM"}]}, {"compound": "COC1OC[C@@H](N(C)C(=O)c2cc3cc(F)c(F)cc3[nH]2)c2c1[nH]c(=O)c1cc(F)c(F)cc21", "note": "(stereo partly drawn) [Compound 320, N-((1S)-8,9-Difluoro-4-methoxy-6-oxo-1,4,5,6-tetrahydro-2H-pyrano[3,4-c]isoquinolin-1-yl)-5,6-difluoro-N-methyl-1H-indole-2-carboxamide]", "values": [{"measurement": "EC50", "value": 30, "unit": "nM"}]}, {"compound": "CN(C(=O)c1cc2cc(F)c(F)cc2[nH]1)[C@@H]1COC(=O)c2[nH]c(=O)c3cc(F)c(F)cc3c21", "note": "[Compound 321, (S)-N-(8,9-Difluoro-4,6-dioxo-1,4,5,6-tetrahydro-2H-pyrano[3,4-c]isoquinolin-1-yl)-5,6-difluoro-N-methyl-1H-indole-2-carboxamide]", "values": [{"measurement": "EC50", "value": 10, "unit": "nM"}]}]}
